Measured values taken from article PMC9917201, “Enhanced Antibacterial Activity of Substituted Derivatives of NCR169C Peptide” (International Journal of Molecular Sciences, 2023).
Converted amounts (≈) assume the structure as drawn. Read-outs that look alike come from different tables or passages of the source. Non-standard residues stand in square brackets, D forms with d. Residues, ends and D or L forms follow the SMILES beside them. ξ: configuration not given here. dTrp(5-F) = N[C@H](Cc1c[nH]c2ccc(F)cc12)C(=O)O; ξTrp(5-OMe) = COc1ccc2[nH]cc(CC(N)C(=O)O)c2c1; ξTrp(7-aza) = NC(Cc1c[nH]c2ncccc12)C(=O)O

Legend:
Assay type in all cases: cell-based
[1] = test system: Escherichia coli (ATCC 8739); details: ATCC 8739, 3 h, pH 7.4
Source text: (§1) The bacterial strains for the antimicrobial assay were obtained from the ATCC (American Type Culture Collection, Manassas, VA, USA) and NCTC (National Collection of Type Cultures, Salisbury, UK). Gram-negative strains were Pseudomonas aeruginosa (ATCC 27853), Escherichia coli (ATCC 8739, ATCC 35218, and ATCC 25922), Salmonella enterica (ATCC 13076), Klebsiella pneumoniae (NCTC 13440), Acinetobacter baumannii (ATCC 17978) and the Gram-positive strains were Enterococcus faecalis (ATCC 29212), Listeria monocytogenes (ATCC 19111), and Staphylococcus aureus (HNCMO112011 and ATCC 25923).
(§2) Determination of antibacterial activity for the peptides was carried out by utilizing a minimum bactericidal concentration (MBC) bioassay. Synthesized peptides were dissolved in sterile water and used from 25 to 0.125 μM in 2-fold dilution series and incubated with ~10^7 log phase bacteria in Potassium-Phosphate Buffer (PPB, pH: 7.4) for three hours as described earlier. After that, 5 μl of each sample was placed on LB agar and the growth of bacteria was monitored after overnight incubation at 37 °C. The lowest concentration of the antimicrobial agents that completely eliminated viable bacteria was considered the minimal bactericidal concentration (MBC).

[2] = test system: Salmonella enterica (ATCC 13076); details: ATCC 13076, 3 h, pH 7.4
Source text: as §1, §2

[3] = test system: tested bacteria (ESKAPE pathogens, Listeria monocytogenes, Salmonella enterica)
Source text: as §1, §2

[4] = test system: Staphylococcus aureus (HNCMO112011); details: HNCMO112011, 3 h, pH 7.4
Source text: as §1, §2

[5] = test system: Enterococcus faecalis (ATCC 29212); details: ATCC 29212, 3 h, pH 7.4
Source text: as §1, §2

[6] = test system: Klebsiella pneumoniae (NCTC 13440); details: NCTC 13440, 3 h, pH 7.4
Source text: as §1, §2

[7] = test system: Acinetobacter baumannii (ATCC 17978); details: ATCC 17978, 3 h, pH 7.4
Source text: as §1, §2

[8] = test system: Pseudomonas aeruginosa (ATCC 27853)
Source text: as §1, §2

[9] = test system: Listeria monocytogenes (ATCC 19111); details: ATCC 19111, 3 h, pH 7.4
Source text: as §1, §2

Row | Structure (SMILES) | Minimal bactericidal concentration (MBC) E. c. [1] [µM] | Minimal bactericidal concentration (MBC) S. e. [2] [µM] | MBC against most or all of the tested bacteria ([3]; 3 h, pH 7.4) [µM] | Minimal bactericidal concentration (MBC) S. a. [4] [µM] | Minimal bactericidal concentration (MBC) E. f. [5] [µM] | Minimal bactericidal concentration (MBC) K. p. [6] [µM] | Minimal bactericidal concentration (MBC) A. b. [7] [µM] | Minimal bactericidal concentration (MBC) P. a. ([8]; ATCC 27853, 3 h, pH 7.4) [µM] | Minimal bactericidal concentration (MBC) L. m. [9] [µM] | MBC against most or all of the tested bacteria ([3]; summary over the tested bacterial species, 3 h in PPB pH 7.4) | Minimal bactericidal concentration (MBC) P. a. ([8]; Pseudomonas aeruginosa ATCC 27853, ~10^7 log phase bacteria, 3 h in PPB pH 7.4, peptide 25 to 0.125 μM 2-fold series, plated on LB agar, overnight 37 °C) [µM]
1 | CC[C@H](C)[C@H](NC(=O)[C@H](CCCCN)NC(=O)[C@H](Cc1ccccc1)NC(=O)[C@H](CC(C)C)NC(=O)[C@@H]1CCCN1C(=O)[C@H](CCCCN)NC(=O)[C@H](CCCCN)NC(=O)[C@H](CO)NC(=O)[C@@H](N)CCCCN)C(=O)NC(Cc1c[nH]c2ncccc12)C(=O)N[C@@H](CCCCN)C(=O)N[C@@H](CO)C(=O)N[C@H](C(=O)N[C@@H](CCC(=O)O)C(=O)N[C@@H](CC(N)=O)C(=O)N[C@H](C(=O)N[C@@H](CO)C(=O)N[C@H](C(=O)N[C@@H](CC(C)C)C(=O)N[C@@H](Cc1c[nH]c2ccccc12)C(=O)N[C@@H](Cc1ccc(O)cc1)C(=O)N[C@@H](CCCCN)C(N)=O)C(C)C)C(C)C)C(C)C (stereo partly drawn) [NCR169C17–38C12,17/S-10W^7-Aza I] (H-KSKKPLFKI[ξTrp(7-aza)]KSVENVSVLWYK-NH2; N-terminus assumed) | 3.1 (≈ 8.4 µg/mL) | 3.1 (≈ 8.4 µg/mL) | 3.1 | 3.1 (≈ 8.4 µg/mL) | 6.3 (≈ 17.1 µg/mL) | 6.3 (≈ 17.1 µg/mL) | 3.1 (≈ 8.4 µg/mL) | 3.1 (≈ 8.4 µg/mL) | 3.1 (≈ 8.4 µg/mL) |  | 
2 | CC[C@H](C)[C@H](NC(=O)[C@H](CCCCN)NC(=O)[C@H](Cc1ccccc1)NC(=O)[C@H](CC(C)C)NC(=O)[C@@H]1CCCN1C(=O)[C@H](CCCCN)NC(=O)[C@H](CCCCN)NC(=O)[C@H](CO)NC(=O)[C@@H](N)CCCCN)C(=O)N[C@H](Cc1c[nH]c2ccc(F)cc12)C(=O)N[C@@H](CCCCN)C(=O)N[C@@H](CO)C(=O)N[C@H](C(=O)N[C@@H](CCC(=O)O)C(=O)N[C@@H](CC(N)=O)C(=O)N[C@H](C(=O)N[C@@H](CO)C(=O)N[C@H](C(=O)N[C@@H](CC(C)C)C(=O)N[C@@H](Cc1c[nH]c2ccccc12)C(=O)N[C@@H](Cc1ccc(O)cc1)C(=O)N[C@@H](CCCCN)C(N)=O)C(C)C)C(C)C)C(C)C [NCR169C17–38C12,17/S-10W^5-F-D] (H-KSKKPLFKI[dTrp(5-F)]KSVENVSVLWYK-NH2; N-terminus assumed) | 1.6 (≈ 4.36 µg/mL) | 3.1 (≈ 8.45 µg/mL) |  | 3.1 (≈ 8.45 µg/mL) | 1.6 (≈ 4.36 µg/mL) | 3.1 (≈ 8.45 µg/mL) | 1.6 (≈ 4.36 µg/mL) | 3.1 (≈ 8.45 µg/mL) | 6.3 (≈ 17.2 µg/mL) | 1.6—6.3 µM | 
3 | CC[C@H](C)[C@H](NC(=O)[C@H](CCCCN)NC(=O)[C@H](Cc1ccccc1)NC(=O)[C@H](CC(C)C)NC(=O)[C@@H]1CCCN1C(=O)[C@H](CCCCN)NC(=O)[C@H](CCCCN)NC(=O)[C@H](CO)NC(=O)[C@@H](N)CCCCN)C(=O)NC(Cc1c[nH]c2ccc(OC)cc12)C(=O)N[C@@H](CCCCN)C(=O)N[C@@H](CO)C(=O)N[C@H](C(=O)N[C@@H](CCC(=O)O)C(=O)N[C@@H](CC(N)=O)C(=O)N[C@H](C(=O)N[C@@H](CO)C(=O)N[C@H](C(=O)N[C@@H](CC(C)C)C(=O)N[C@@H](Cc1c[nH]c2ccccc12)C(=O)N[C@@H](Cc1ccc(O)cc1)C(=O)N[C@@H](CCCCN)C(N)=O)C(C)C)C(C)C)C(C)C (stereo partly drawn) [NCR169C17–38C12,17/S-10W^5-MeO II] (H-KSKKPLFKI[ξTrp(5-OMe)]KSVENVSVLWYK-NH2; N-terminus assumed) | 3.1 (≈ 8.49 µg/mL) | 3.1 (≈ 8.49 µg/mL) | 3.1 | 3.1 (≈ 8.49 µg/mL) | 3.1 (≈ 8.49 µg/mL) | 3.1 (≈ 8.49 µg/mL) | 3.1 (≈ 8.49 µg/mL) |  | 3.1 (≈ 8.49 µg/mL) |  | 25 (≈ 68.4 µg/mL)
